The test system of one data set is YUMAC tumors. The experiment in a line: Human melanoma YUMAC xenograft tumor growth. The conditions noted are these: IP, 20 mg/kg, 1/day. Type of data set: in vivo, nude mice. As to the method:
(§1) Human hormone-refractory prostate cancer PC3 cells (ATCC, 1.5×10^6 cells per mouse) were injected subcutaneously into the right leg of Nude:Hsd mice (purchased from Harlan). Ten days later, when palpable tumors had developed, mice were divided into 3 groups with similar average tumor size. […] The mice treated with compound 7 group were daily injected with compound 7 dissolved in the below described vehicle, and the vehicle-treated group (veh) was daily injected by the vehicle alone. Vehicle included 4.4% DMSO, 1.2% Ethanol and 50% PEG400 in DDW; Groups were composed of 3 mice per group. Dose administered IP was 50 mg/Kg (4 ml/Kg) once a day for one month. The length (l) and the width (w) of the tumors were measured every day and the volumes of the tumors were calculated as follows: v=1w^2/2. Graphs present average volumes of the tumors versus time in days. The procedure was followed for the other described in-vivo studies with the following modifications:
The human YUMAC metastatic melanoma cells (2×10^6 cells per mouse), provided by Dr. Ruth Halaban (Yale University), were injected subcutaneously into the right leg of male Nude:Hsd mice (purchased from Harlan). Inhibitors were injected IP daily at a dose of 20 mg/kg dissolved in 8% EtOH, 2% Tween-80, 20% PEG-400 and 20% solutol in DDW at volume of 4 ml/kg.
On the technique in general: In xenograft studies the graft and the host belong to different species.

The next data set deals with B16 tumors. The experiment in a line: Melanoma B16 tumor growth. Type of data set: in vivo, nude mice. The conditions noted are these: IP, 20 mg/kg, 1/day. The method, then: as §1
The mouse B16 melanoma cells (1.5×10^6 cells per mouse) were injected subcutaneously into the right leg of male Nude:Hsd mice (purchased from Harlan). Inhibitors were injected IP daily at a dose of 20 mg/kg dissolved in 4.4% % DMSO, 1.2% EtOH, 33% PEG-400 in DDW at volume of 4 ml/kg.

In another data set the test system is PC3 tumors. Kind of data set: Hormone-refractory prostate cancer PC3 xenograft tumor growth. The format is in vivo, nude mice. The method, then: as §1, with “modifications: […]” for “modifications:”
Another data set deals with T1, IGF1R (Homo sapiens, UniProt P08069).
T1 construct: made in house
T1 sequence (P08069 31-1367, species assumed): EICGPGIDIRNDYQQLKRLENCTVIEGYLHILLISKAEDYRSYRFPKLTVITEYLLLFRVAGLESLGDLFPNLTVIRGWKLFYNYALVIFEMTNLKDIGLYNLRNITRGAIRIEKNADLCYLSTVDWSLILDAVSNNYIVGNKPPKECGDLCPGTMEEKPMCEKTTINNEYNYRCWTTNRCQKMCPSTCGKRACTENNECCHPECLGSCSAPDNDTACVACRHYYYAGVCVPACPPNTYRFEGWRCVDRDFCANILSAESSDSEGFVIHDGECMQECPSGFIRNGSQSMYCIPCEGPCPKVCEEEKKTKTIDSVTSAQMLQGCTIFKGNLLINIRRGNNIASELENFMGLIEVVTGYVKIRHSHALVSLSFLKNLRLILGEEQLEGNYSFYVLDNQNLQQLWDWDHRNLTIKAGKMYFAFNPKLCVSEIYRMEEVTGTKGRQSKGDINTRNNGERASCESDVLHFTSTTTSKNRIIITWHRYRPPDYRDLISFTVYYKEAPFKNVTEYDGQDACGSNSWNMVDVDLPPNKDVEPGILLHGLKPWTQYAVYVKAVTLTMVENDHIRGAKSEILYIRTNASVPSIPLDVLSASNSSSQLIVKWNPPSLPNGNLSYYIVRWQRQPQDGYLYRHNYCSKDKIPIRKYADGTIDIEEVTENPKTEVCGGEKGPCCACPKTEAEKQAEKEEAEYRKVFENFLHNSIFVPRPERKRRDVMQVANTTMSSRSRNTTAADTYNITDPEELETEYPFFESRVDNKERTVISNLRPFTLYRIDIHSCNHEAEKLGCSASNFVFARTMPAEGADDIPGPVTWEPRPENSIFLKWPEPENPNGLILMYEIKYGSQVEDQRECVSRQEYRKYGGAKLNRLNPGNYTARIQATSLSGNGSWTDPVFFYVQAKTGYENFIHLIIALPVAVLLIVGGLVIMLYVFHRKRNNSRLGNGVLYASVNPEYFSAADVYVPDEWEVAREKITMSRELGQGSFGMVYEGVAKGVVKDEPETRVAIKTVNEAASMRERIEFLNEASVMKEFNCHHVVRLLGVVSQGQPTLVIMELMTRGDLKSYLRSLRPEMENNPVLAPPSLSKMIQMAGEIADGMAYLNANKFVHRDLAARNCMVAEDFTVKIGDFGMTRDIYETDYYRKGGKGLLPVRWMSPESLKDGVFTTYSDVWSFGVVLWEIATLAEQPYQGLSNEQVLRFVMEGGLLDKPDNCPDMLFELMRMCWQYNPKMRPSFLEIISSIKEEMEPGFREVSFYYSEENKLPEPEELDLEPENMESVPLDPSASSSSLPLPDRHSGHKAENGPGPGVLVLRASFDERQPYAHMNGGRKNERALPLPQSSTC
The experiment in a line: Inhibition of IGF1-induced signaling in intact MCF7 cells (western blot). The format is cell-based. The conditions noted are these: for Inhibition of IGF1R autophosphorylation and IGF1-induced signaling (IRS1 pTyr, Akt/PKB, MAPK/ERK): 4 h exposure, IGF1 stimulation. The method, then: (§2) Tyrosine autophosphorylation of the β-subunit of IGF1R as well as downstream signaling induced by IGF1R were assayed in breast cancer MCF7 cells. Tyrosine autophosphorylation of the EGFR and the EGFR signaling was assayed in prostate cancer PC3 cells. Tyrosine autophosphorylation of the PDGFR and its signaling was assayed in fibroblasts overexpres sing PDGFR. Tyro sine autophosphorylation of the IR and its signaling was assayed in fibroblasts overexpressing IR. Cells were seeded in 6-well plates (MCF7-250,000 cells/well, PC3-150,000 cells/well, fibroblasts-140,000 cells/well) and 24 hours later medium was replaced by serum-free medium (DMEM supplemented with 100 units/ml penicillin and 100 μg/ml streptomycin). Following 20 hours of serum-starvation medium was replaced with medium containing various concentrations of the inhibitors in 0.1% DMSO for additional 4 hours. Cells were then stimulated for 5 min with 50 ng/ml IGF-1 (MCF7 cells), 20 ng/ml EGF (PC3 cells), 50 ng/ml PDGF (fibroblasts overexpressing PDGFR) or 100 nM insulin (fibroblasts overexpressing IR), washed twice with PBS and lysed by boiling sample buffer (10% glycerol, 50 mM Tris-HCl, pH 6.8, 3% SDS, and 5%, β-mercaptoethanol). Equal amounts of protein per lane were separated by 8% SDS-PAGE and transferred to a nitrocellulose membrane (Sartorius AG). Phosphorylated proteins were immunoblotted with anti-phospho-IGF1R (phosphor-IGF1R), anti-phosphotyrosine-IRS1 (phospho-IRS1), anti-phospho(T308)Akt (phospho-PKB), anti-phospho-Erk (phospho-ERK), anti-phosphotyrosine 4G10&PY20 (pY-EGFR or pY-PDGFR), anti-phospho-Ser^636/639-IRS1 (pS^636/639-IRS1) and anti-phospho-STAT3 (phospho-STAT3) antibodies. Detection was performed with horseradish peroxidase-conjugated secondary antibody using the ECL system. Blots were then stripped of antibodies, blocked with TBST with 5% low fat milk and re-probed with antibodies detecting both the phosphorylated and the non-phosphorylated corresponding proteins e.g. IGF1Rβ, IRS1, PKB, ERK, IRβ, PDGFR and Stat3.

The subject of another data set is PDGFR. The experiment in a line: PDGFR activation and signaling in fibroblasts overexpressing PDGFR. Type of data set: cell-based. The conditions noted are these: fibroblasts over-expressing PDGFR, PDGF stimulation. As to the method:
as §2, with “Phosphorylated proteins were immunoblotted with anti-phospho-IGF1R (phosphor-IGF1R), anti-phosphotyrosine-IRS1 (phospho-IRS1), anti-phospho(T308)Akt (phospho-PKB), anti-phospho-Erk (phospho-ERK), anti-phosphotyrosine 4G10&PY20 (pY-EGFR or pY-PDGFR), anti-phospho-Ser^636/639-IRS1 (pS^636/639-IRS1) and anti-phospho-STAT3 (phospho-STAT3) antibodies. Detection was performed with horseradish peroxidase-conjugated secondary antibody using the ECL system. Blots were then stripped of antibodies, blocked with TBST with 5% low fat milk and re-probed with antibodies detecting both the phosphorylated and the non-phosphorylated corresponding proteins e.g. IGF1Rβ, IRS1, PKB, ERK, IRβ, PDGFR and Stat3.” left out

Another data set concerns the target T2, EGFR (Homo sapiens, UniProt P00533).
T2 construct: endogenous in cells; host or cells: PC3
Kind of data set: EGFR activation and EGF-induced signaling in PC3 cells. The format is cell-based. The note with it: EGF stimulation. As to the method:
as §2, with “Phosphorylated proteins were immunoblotted with anti-phospho-IGF1R (phosphor-IGF1R), anti-phosphotyrosine-IRS1 (phospho-IRS1), anti-phospho(T308)Akt (phospho-PKB), anti-phospho-Erk (phospho-ERK), anti-phosphotyrosine 4G10&PY20 (pY-EGFR or pY-PDGFR), anti-phospho-Ser^636/639-IRS1 (pS^636/639-IRS1) and anti-phospho-STAT3 (phospho-STAT3) antibodies. Detection was performed with horseradish peroxidase-conjugated secondary antibody using the ECL system. Blots were then stripped of antibodies, blocked with TBST with 5% low fat milk and re-probed with antibodies detecting both the phosphorylated and the non-phosphorylated corresponding proteins e.g. IGF1Rβ, IRS1, PKB, ERK, IRβ, PDGFR and Stat3.” left out

The test system of a further data set is Panc1 tumors. The experiment in a line: Pancreatic cancer Panc1 xenograft tumor growth. The conditions noted are these: intratumoral, 1/day, 125 μg/day. The format is in vivo, nude mice. As to the method: as §1
Human pancreatic cancer Pancl cells (2×10^6 cells per mouse) were injected subcutaneously into the right leg of male Nude:Hsd mice (purchased from Harlan). Compound 7 was injected intratumorally (IT) daily at doses of 125 μg/mouse in 0.06% DMSO and 2.16% PEG400 in saline.

In a further data set the target is T3, PDK (Homo sapiens, UniProt O15530).
T3 construct: endogenous in cells
T3 sequence (O15530 whole entry): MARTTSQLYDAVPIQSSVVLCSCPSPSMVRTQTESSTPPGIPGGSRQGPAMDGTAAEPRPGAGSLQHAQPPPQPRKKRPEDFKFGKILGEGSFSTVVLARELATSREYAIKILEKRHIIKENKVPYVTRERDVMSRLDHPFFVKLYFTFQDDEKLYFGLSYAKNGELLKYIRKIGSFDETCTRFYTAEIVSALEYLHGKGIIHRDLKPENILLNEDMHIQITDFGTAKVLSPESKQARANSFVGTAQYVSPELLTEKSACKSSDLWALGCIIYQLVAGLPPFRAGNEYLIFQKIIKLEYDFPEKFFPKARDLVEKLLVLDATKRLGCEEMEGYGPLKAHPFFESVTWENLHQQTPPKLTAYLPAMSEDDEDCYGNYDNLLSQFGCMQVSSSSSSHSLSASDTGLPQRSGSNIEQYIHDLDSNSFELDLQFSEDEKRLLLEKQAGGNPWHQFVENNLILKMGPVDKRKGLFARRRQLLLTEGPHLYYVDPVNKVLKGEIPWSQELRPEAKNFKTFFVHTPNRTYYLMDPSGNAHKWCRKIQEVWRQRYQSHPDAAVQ
The experiment in a line: PDK activity in cells (PKB Thr308 phosphorylation). The format is cell-based. The method, then:
as §2, with “Phosphorylated proteins were immunoblotted with anti-phospho-IGF1R (phosphor-IGF1R), anti-phosphotyrosine-IRS1 (phospho-IRS1), anti-phospho(T308)Akt (phospho-PKB), anti-phospho-Erk (phospho-ERK), anti-phosphotyrosine 4G10&PY20 (pY-EGFR or pY-PDGFR), anti-phospho-Ser^636/639-IRS1 (pS^636/639-IRS1) and anti-phospho-STAT3 (phospho-STAT3) antibodies. Detection was performed with horseradish peroxidase-conjugated secondary antibody using the ECL system. Blots were then stripped of antibodies, blocked with TBST with 5% low fat milk and re-probed with antibodies detecting both the phosphorylated and the non-phosphorylated corresponding proteins e.g. IGF1Rβ, IRS1, PKB, ERK, IRβ, PDGFR and Stat3.” left out

For another data set, the system named is primary keratinocytes. Kind of data set: In-vitro inhibition of keratinocyte growth. The format is cell-based. The note with it: growth factor enriched medium. As to the method: Primary keratinocytes were seeded in 96-well plates in growth factor enriched medium. After 48 hours medium was refreshed and compound 7 was added at the indicated concentrations (0 is 0.1% DMSO which was kept constant in all wells). Every 24 hours medium and compound 7 were refreshed, and 5 days following seeding cells were fixed with 0.5% gluteraldehide for 10 min, stained with Methylene-Blue. Access stain was washed away and the bound stain was extracted by 0.1N HCl. Absorbance at 620 nm wavelength was read in ELISA reader.

Data set [1] in a line: Body weight of treated nude mice. The format is in vivo. The conditions noted are these: IP, 1/day, 50 mg/kg, over 4 weeks. As to the method: as §1, with “modifications: […]” for “modifications:”
The test system of the next data set is MEK. Kind of data set: MEK activity in cells (ERK phosphorylation). Type of data set: cell-based. As to the method: as §2, with “Phosphorylated proteins were immunoblotted with anti-phospho-IGF1R (phosphor-IGF1R), anti-phosphotyrosine-IRS1 (phospho-IRS1), anti-phospho(T308)Akt (phospho-PKB), anti-phospho-Erk (phospho-ERK), anti-phosphotyrosine 4G10&PY20 (pY-EGFR or pY-PDGFR), anti-phospho-Ser^636/639-IRS1 (pS^636/639-IRS1) and anti-phospho-STAT3 (phospho-STAT3) antibodies. Detection was performed with horseradish peroxidase-conjugated secondary antibody using the ECL system. Blots were then stripped of antibodies, blocked with TBST with 5% low fat milk and re-probed with antibodies detecting both the phosphorylated and the non-phosphorylated corresponding proteins e.g. IGF1Rβ, IRS1, PKB, ERK, IRβ, PDGFR and Stat3.” left out

T2 sequence (P00533 25-1210): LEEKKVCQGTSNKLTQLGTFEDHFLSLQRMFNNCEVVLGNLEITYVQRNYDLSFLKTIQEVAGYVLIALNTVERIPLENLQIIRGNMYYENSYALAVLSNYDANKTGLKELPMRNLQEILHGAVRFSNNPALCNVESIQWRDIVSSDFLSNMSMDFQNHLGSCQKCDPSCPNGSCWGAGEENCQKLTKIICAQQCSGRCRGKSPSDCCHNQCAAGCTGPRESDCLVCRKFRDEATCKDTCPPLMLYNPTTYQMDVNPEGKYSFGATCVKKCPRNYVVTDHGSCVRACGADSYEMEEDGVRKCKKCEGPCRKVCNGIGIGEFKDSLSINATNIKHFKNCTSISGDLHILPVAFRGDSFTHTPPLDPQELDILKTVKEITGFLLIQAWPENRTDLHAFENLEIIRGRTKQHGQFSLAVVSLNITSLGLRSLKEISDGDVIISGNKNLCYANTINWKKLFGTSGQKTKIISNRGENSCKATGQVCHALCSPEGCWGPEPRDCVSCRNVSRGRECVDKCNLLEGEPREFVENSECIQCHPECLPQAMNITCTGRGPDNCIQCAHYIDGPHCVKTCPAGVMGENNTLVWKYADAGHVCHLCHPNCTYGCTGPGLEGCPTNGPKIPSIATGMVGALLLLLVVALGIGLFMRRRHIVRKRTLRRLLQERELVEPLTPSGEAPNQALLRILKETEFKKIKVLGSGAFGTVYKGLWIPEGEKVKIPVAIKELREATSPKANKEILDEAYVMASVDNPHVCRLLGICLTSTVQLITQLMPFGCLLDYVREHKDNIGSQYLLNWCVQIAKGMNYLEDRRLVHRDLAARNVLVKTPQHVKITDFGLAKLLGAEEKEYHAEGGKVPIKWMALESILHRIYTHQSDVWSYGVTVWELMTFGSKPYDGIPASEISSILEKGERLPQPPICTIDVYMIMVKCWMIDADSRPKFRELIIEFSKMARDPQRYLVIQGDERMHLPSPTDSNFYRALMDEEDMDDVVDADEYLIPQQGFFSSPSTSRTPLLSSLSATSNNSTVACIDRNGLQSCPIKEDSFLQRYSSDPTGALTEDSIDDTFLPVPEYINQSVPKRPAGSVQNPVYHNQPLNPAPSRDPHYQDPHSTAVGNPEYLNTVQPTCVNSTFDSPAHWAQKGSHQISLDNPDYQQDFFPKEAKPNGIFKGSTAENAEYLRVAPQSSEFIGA

Turning to `N#C/C(=C\c1cc(O)c(O)c(I)c1)C(=S)NCc1cc(O)c(O)c(O)c1` [Compound 8], the “Growth inhibition of human melanoma YUMAC tumors” value in the data set with YUMAC tumors is given as “inhibition”.

For `N#C/C(=C\c1cc(O)c(O)c(Br)c1)C(=S)NCc1cc(O)c(O)c(O)c1` [Compound 7], the “Growth inhibition of melanoma B16 tumors” value in the data set with B16 tumors is “significant inhibitory effect”. The “Growth inhibition of HRPC PC3 tumors” value in the data set on PC3 tumors (IP, 1/day, 50 mg/kg, one month, vs vehicle treated and untreated) is given as 82%. For the same compound, the “Efficacy on HRPC model by intratumoral administration” value in the data set with PC3 tumors (intratumoral administration) was “efficient”. On IGF1R, the “Inhibition of IGF1R autophosphorylation and IGF1-induced signaling (IRS1 pTyr, Akt/PKB, MAPK/ERK)” value is “dramatically inhibited”. In addition, the IC50 was 1000 to 2000 nM on IGF1R (read-out: IC50 in inhibition of the Akt/PKB pathway downstream IGF1R) and 2300 nM with primary keratinocytes. For the same compound, the “Inhibition of PDGFR in intact cells” value with PDGFR is reported as “inhibits”. Also, the “Inhibition of EGFR and EGF-induced signaling in intact cells” value at EGFR is given as “inhibits”. In addition, in the data set with Panc1 tumors, the “Growth inhibition of pancreatic cancer Panc1 tumors” value stood at 50%. In addition, the “Inhibition of PDK (phosphorylation of PKB Thr308)” value on PDK is “not inhibited”. In addition, the “Effect on body weight of the mice” value in [1] is listed as “no significant effect”. The “Inhibition of MEK (phosphorylation of ERK)” value in the data set with MEK is “not inhibited”.

With `N#C/C(=C\c1cc(O)c(O)c(Br)c1)C(=S)NCc1cc(O)c(O)c(Br)c1` [Compound 6], the “Growth inhibition of melanoma B16 tumors” value in the data set on B16 tumors is given as “significant inhibitory effect”. In addition, the “Inhibition of IGF1R autophosphorylation and IGF1-induced signaling (IRS1 pTyr, Akt/PKB, MAPK/ERK)” value at IGF1R was “inhibited the autophosphorylation of IGF1R”. Moreover, at EGFR, the “Inhibition of EGFR and EGF-induced signaling in intact cells” value is on record as “inhibited also EGFR”.

These data come from US8058309B2, “Protein kinase modulators and therapeutic uses thereof” (Novotyr Therapeutics Ltd., priority 2006, dated 2011).
